The text below walks through data of PMC13163009, “Pyrimethamine Restores KEAP1-Mediated Degradation of Select NRF2 Mutants in Esophageal Squamous Cell Carcinoma” (Cancers, 2026).

The target of test [1] is T1, KEAP1 (Kelch-like ECH-associated protein 1) (Homo sapiens, UniProt Q14145).
T1 construct: human recombinant KEAP1 (Gln2-Cys624)
The test is described as follows: ITC with recombinant full-length KEAP1; SPR showed PYR modestly increases DLG(W24C) peptide binding to the Kelch domain.

Test [2] deals with T2, Kelch fragment (Ala321-Glu611 of human KEAP1 protein) (human, UniProt Q14145 321-611, biotinylated (site not stated)).
T2 construct: Kelch-like ECH-associated protein 1 (KEAP1), human, Kelch fragment Ala321-Glu611; printed MW 34,038.03 Da; The printed mass (34,038.03 Da) looks larger than residues 321-611 alone, so extra residues or a tag for biotinylation may be present; also called Kelch domain; Kelch domain fragment of KEAP1; source: expressed in vitro, purified, biotinylated, validated by LC-MS
As to the kind of experiment: SPR; Biacore S200; biotinylated Kelch immobilised on a streptavidin chip; DLG peptides as analytes, 2-fold dilutions from 200 uM to 0.39 uM; 30 uL/min, 90 s association, 180 s dissociation; analysis at 15 °C; also run with PYR mixed into the analyte with the DLG peptides. To be noted: both partners purified. (In general: SPR reads the build-up and loss of mass on a sensor chip optically.)

T1 sequence (Q14145 2-624): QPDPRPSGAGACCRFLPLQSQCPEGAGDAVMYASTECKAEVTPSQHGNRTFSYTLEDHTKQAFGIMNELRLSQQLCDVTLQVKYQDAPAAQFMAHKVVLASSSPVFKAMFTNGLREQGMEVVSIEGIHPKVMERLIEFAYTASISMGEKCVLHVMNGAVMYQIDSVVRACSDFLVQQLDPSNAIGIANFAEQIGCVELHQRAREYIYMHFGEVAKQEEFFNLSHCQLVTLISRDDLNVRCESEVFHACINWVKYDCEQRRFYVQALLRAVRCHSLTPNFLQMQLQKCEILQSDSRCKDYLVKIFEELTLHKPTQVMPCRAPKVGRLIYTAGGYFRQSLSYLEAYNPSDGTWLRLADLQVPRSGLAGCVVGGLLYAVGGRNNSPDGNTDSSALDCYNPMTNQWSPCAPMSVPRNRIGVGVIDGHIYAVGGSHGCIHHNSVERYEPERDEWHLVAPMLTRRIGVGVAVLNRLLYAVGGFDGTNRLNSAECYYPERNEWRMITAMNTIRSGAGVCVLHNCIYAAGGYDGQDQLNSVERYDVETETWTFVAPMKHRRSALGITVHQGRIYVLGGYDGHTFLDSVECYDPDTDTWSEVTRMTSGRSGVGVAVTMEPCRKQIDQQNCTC
T2 sequence (Q14145 321-611): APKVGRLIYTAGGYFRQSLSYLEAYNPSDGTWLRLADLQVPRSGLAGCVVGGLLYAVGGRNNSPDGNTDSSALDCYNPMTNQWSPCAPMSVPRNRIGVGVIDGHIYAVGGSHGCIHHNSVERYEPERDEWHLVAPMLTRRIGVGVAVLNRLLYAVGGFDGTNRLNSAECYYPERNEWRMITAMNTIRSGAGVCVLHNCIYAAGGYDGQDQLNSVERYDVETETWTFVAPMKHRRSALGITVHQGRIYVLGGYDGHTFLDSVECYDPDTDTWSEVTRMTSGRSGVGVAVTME

For `CCc1nc(N)nc(N)c1-c1ccc(Cl)cc1` [PYR, pyrimethamine], the Kd (in general, the free concentration of one partner at which half of the binding sites on the other are occupied at equilibrium, for simple one-to-one binding) in test [1] was 13 µM.

B1: DLG^WT peptide (NRF2 residues 17-40) (peptide)
peptide: MDLIDILWRQDIDLGVSREVFDFS
notes: nuclear factor erythroid 2-related factor 2 (NRF2, NFE2L2), residues 17-40 with the DLG motif; also called DLG-containing NRF2 peptide; source: synthetic peptide
On to B1, for which the binding result in test [2] was “binds”.
